Holding throughout (test): relative viability (nuclei count vs DMSO), 5 days (fraction); higher = more cells survive
Compound in experiment [1]: CC1=C(C(=NN1)C)CC2=C(C3=C(S2)N(C(=O)N(C3=O)C)CC(C)C)C(=O)N4C[C@@H](CO4)O + CC1(C)CCC(c2ccc(Cl)cc2)=C(CN2CCN(c3ccc(C(=O)NS(=O)(=O)c4ccc(N[C@H](CCN5CCOCC5)CSc5ccccc5)c(S(=O)(=O)C(F)(F)F)c4)cc3)CC2)C1 [Navitoclax] (partner 0.5 µM)
In short, it runs like this:
(§1)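 Relative viability was taken as the ratio of nuclei in treated wells to nuclei in vehicle wells. Lung cancer cell lines in 1536-well plates received compounds by pin tool one day after seeding, either one drug alone or a fixed anchor-drug dose plus five library-drug doses (not always all listed) in √10 steps. Nuclei were counted on 4× images after 5 days of treatment, and values are medians of duplicate plates.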

Compound in experiment [2]: CC1=C(C(=NN1)C)CC2=C(C3=C(S2)N(C(=O)N(C3=O)C)CC(C)C)C(=O)N4C[C@@H](CO4)O + C[C@]1(O)C[C@@H](c2nc(-c3ccc4ccc(-c5ccccc5)nc4c3)c3c(N)nccn32)C1 [Linsitinib] (partner 1 µM)
Summed up:
as §1

Compound in experiment [3]: CC1=C(C(=NN1)C)CC2=C(C3=C(S2)N(C(=O)N(C3=O)C)CC(C)C)C(=O)N4C[C@@H](CO4)O + CC(=O)c1c(C)c2cnc(Nc3ccc(N4CCNCC4)cn3)nc2n(C2CCCC2)c1=O [Palbociclib] (partner 0.5 µM)
In short, it runs like this: as §1

Compound in experiment [4]: CC1=C(C(=NN1)C)CC2=C(C3=C(S2)N(C(=O)N(C3=O)C)CC(C)C)C(=O)N4C[C@@H](CO4)O + CC(=O)Nc1cccc(-n2c(=O)n(C3CC3)c(=O)c3c(Nc4ccc(I)cc4F)n(C)c(=O)c(C)c32)c1 [Trametinib] (partner 0.02 µM)
Summed up:
as §1

In the case of HCC-78, the relative viability in experiment [1] (first compound 0.0025 µM) turned out to be 0.834; in experiment [1] (first compound 0.007906 µM), 0.743; in experiment [1] (first compound 0.025 µM) it was 0.868; in experiment [1] (first compound 0.07906 µM), 0.716; in experiment [1] (first compound 0.25 µM), 0.768; in experiment [2] (first compound 0.0025 µM), 0.483. Also, the relative viability came out at 0.548 in experiment [2] (first compound 0.007906 µM); 0.587 in experiment [2] (first compound 0.025 µM); 0.505 in experiment [2] (first compound 0.07906 µM); 0.377 in experiment [2] (first compound 0.25 µM); 0.534 in experiment [3] (first compound 0.0025 µM); 0.546 in experiment [3] (first compound 0.007906 µM). For the same cell line, the relative viability was 0.464 in experiment [3] (first compound 0.025 µM); 0.469 in experiment [3] (first compound 0.07906 µM); 0.44 in experiment [3] (first compound 0.25 µM); 0.796 in experiment [4] (first compound 0.0025 µM); 0.77 in experiment [4] (first compound 0.007906 µM); 0.775 in experiment [4] (first compound 0.025 µM). Further, the values for the relative viability in experiment [4] (first compound 0.07906 µM) and in experiment [4] (first compound 0.25 µM) were 0.663 and 0.811, respectively.

With HCC-366, the relative viability in experiment [1] (first compound 0.0025 µM) was found to be 1.09; in experiment [1] (first compound 0.007906 µM), 0.997; in experiment [1] (first compound 0.025 µM), 1.05; in experiment [1] (first compound 0.07906 µM) it was 1.03; in experiment [1] (first compound 0.25 µM), 1.13; in experiment [2] (first compound 0.0025 µM), 0.593. Besides, the relative viability in experiment [2] (first compound 0.007906 µM) worked out at 0.771; in experiment [2] (first compound 0.025 µM) it was 0.59; in experiment [2] (first compound 0.07906 µM), 0.62; in experiment [2] (first compound 0.25 µM) it was 0.712; in experiment [3] (first compound 0.0025 µM) it was 0.377; in experiment [3] (first compound 0.007906 µM) it was 0.406. The relative viability came to 0.387 in experiment [3] (first compound 0.025 µM); 0.372 in experiment [3] (first compound 0.07906 µM); 0.523 in experiment [3] (first compound 0.25 µM); 0.367 in experiment [4] (first compound 0.0025 µM); 0.501 in experiment [4] (first compound 0.007906 µM); 0.376 in experiment [4] (first compound 0.025 µM). Further, the relative viability in experiment [4] (first compound 0.07906 µM) amounted to 0.455; in experiment [4] (first compound 0.25 µM), 0.324.

On to HCC-827, for which the relative viability in experiment [1] (first compound 0.0025 µM) is 0.983; in experiment [1] (first compound 0.007906 µM), 1.08; in experiment [1] (first compound 0.025 µM), 1.03; in experiment [1] (first compound 0.07906 µM) it was 1.04; in experiment [1] (first compound 0.25 µM), 1.04; in experiment [2] (first compound 0.0025 µM) it was 1.01. In addition, the relative viability came out at 1.01 in experiment [2] (first compound 0.007906 µM); 0.96 in experiment [2] (first compound 0.025 µM); 0.949 in experiment [2] (first compound 0.07906 µM); 0.963 in experiment [2] (first compound 0.25 µM); 0.403 in experiment [3] (first compound 0.0025 µM); 0.414 in experiment [3] (first compound 0.007906 µM). The relative viability turned out to be 0.339 in experiment [3] (first compound 0.025 µM); 0.541 in experiment [3] (first compound 0.07906 µM); 0.466 in experiment [3] (first compound 0.25 µM); 0.556 in experiment [4] (first compound 0.0025 µM); 0.542 in experiment [4] (first compound 0.007906 µM); 0.529 in experiment [4] (first compound 0.025 µM). In addition, the relative viability in experiment [4] (first compound 0.07906 µM) stood at 0.51; in experiment [4] (first compound 0.25 µM), 0.521.

For the cell line HOP-62, the relative viability in experiment [1] (first compound 0.0025 µM) stood at 1.15; in experiment [1] (first compound 0.007906 µM), 1.03; in experiment [1] (first compound 0.025 µM) it was 0.857; in experiment [1] (first compound 0.07906 µM), 1.08; in experiment [1] (first compound 0.25 µM), 0.857; in experiment [2] (first compound 0.0025 µM), 1.01. Further, the relative viability was determined as 0.967 in experiment [2] (first compound 0.007906 µM); 0.889 in experiment [2] (first compound 0.025 µM); 1 in experiment [2] (first compound 0.07906 µM); 0.817 in experiment [2] (first compound 0.25 µM); 0.409 in experiment [3] (first compound 0.0025 µM); 0.418 in experiment [3] (first compound 0.007906 µM). Also, the relative viability in experiment [3] (first compound 0.025 µM) was 0.461; in experiment [3] (first compound 0.07906 µM), 0.404; in experiment [3] (first compound 0.25 µM), 0.574; in experiment [4] (first compound 0.0025 µM), 0.365; in experiment [4] (first compound 0.007906 µM), 0.402; in experiment [4] (first compound 0.025 µM), 0.408. Also, the relative viability in experiment [4] (first compound 0.07906 µM) came out at 0.435; in experiment [4] (first compound 0.25 µM), 0.4.

As for IA-LM, the relative viability in experiment [1] (first compound 0.0025 µM) worked out at 0.738; in experiment [1] (first compound 0.007906 µM) it was 0.796; in experiment [1] (first compound 0.025 µM), 0.912; in experiment [1] (first compound 0.07906 µM) it was 0.784; in experiment [1] (first compound 0.25 µM), 0.722; in experiment [2] (first compound 0.0025 µM), 0.686. In addition, the relative viability in experiment [2] (first compound 0.007906 µM) is 0.509; in experiment [2] (first compound 0.025 µM), 0.552; in experiment [2] (first compound 0.07906 µM), 0.525; in experiment [2] (first compound 0.25 µM), 0.94.

Consider LC-2-ad, for which the relative viability is 0.459 in experiment [1] (first compound 0.0025 µM); 0.461 in experiment [1] (first compound 0.007906 µM); 0.463 in experiment [1] (first compound 0.025 µM); 0.481 in experiment [1] (first compound 0.07906 µM); 0.58 in experiment [1] (first compound 0.25 µM); 0.848 in experiment [2] (first compound 0.0025 µM). Further, the relative viability in experiment [2] (first compound 0.007906 µM) amounted to 0.928; in experiment [2] (first compound 0.025 µM), 0.9; in experiment [2] (first compound 0.07906 µM), 0.869; in experiment [2] (first compound 0.25 µM), 0.843; in experiment [3] (first compound 0.0025 µM), 0.46; in experiment [3] (first compound 0.007906 µM) it was 0.518. Also, the relative viability in experiment [3] (first compound 0.025 µM) is 0.456; in experiment [3] (first compound 0.07906 µM), 0.467; in experiment [3] (first compound 0.25 µM), 0.55; in experiment [4] (first compound 0.0025 µM), 0.928; in experiment [4] (first compound 0.007906 µM), 0.874; in experiment [4] (first compound 0.025 µM), 0.922. Moreover, the relative viability in experiment [4] (first compound 0.07906 µM) worked out at 0.896; in experiment [4] (first compound 0.25 µM) it was 0.927.

Turning to LCLC-97TM1, the relative viability in experiment [1] (first compound 0.0025 µM) was found to be 0.394; in experiment [1] (first compound 0.007906 µM), 0.613; in experiment [1] (first compound 0.025 µM) it was 0.404; in experiment [1] (first compound 0.07906 µM) it was 0.373; in experiment [1] (first compound 0.25 µM), 0.467; in experiment [2] (first compound 0.0025 µM) it was 0.183. For the same cell line, the relative viability in experiment [2] (first compound 0.007906 µM) was 0.206; in experiment [2] (first compound 0.025 µM), 0.205; in experiment [2] (first compound 0.07906 µM), 0.163; in experiment [2] (first compound 0.25 µM), 0.159; in experiment [3] (first compound 0.0025 µM), 0.262; in experiment [3] (first compound 0.007906 µM), 0.266. Further, the relative viability was determined as 0.279 in experiment [3] (first compound 0.025 µM); 0.196 in experiment [3] (first compound 0.07906 µM); 0.247 in experiment [3] (first compound 0.25 µM); 0.178 in experiment [4] (first compound 0.0025 µM); 0.184 in experiment [4] (first compound 0.007906 µM); 0.249 in experiment [4] (first compound 0.025 µM). Also, the figures for the relative viability in experiment [4] (first compound 0.07906 µM) and in experiment [4] (first compound 0.25 µM) were 0.158 and 0.189, respectively.

On to LCLC-103H, for which the relative viability in experiment [2] (first compound 0.0025 µM) came to 1.07; in experiment [2] (first compound 0.007906 µM) it was 1.15; in experiment [2] (first compound 0.025 µM) it was 1.18; in experiment [2] (first compound 0.07906 µM), 0.835; in experiment [2] (first compound 0.25 µM) it was 1.12; in experiment [3] (first compound 0.0025 µM) it was 0.426. Also, the relative viability was found to be 0.471 in experiment [3] (first compound 0.007906 µM); 0.508 in experiment [3] (first compound 0.025 µM); 0.478 in experiment [3] (first compound 0.07906 µM); 0.443 in experiment [3] (first compound 0.25 µM); 0.681 in experiment [4] (first compound 0.0025 µM); 0.689 in experiment [4] (first compound 0.007906 µM). In addition, the relative viability was 0.664 in experiment [4] (first compound 0.025 µM), 0.688 in experiment [4] (first compound 0.07906 µM) and 0.661 in experiment [4] (first compound 0.25 µM).

The values above are taken from the supplement of paper PMC10307832.
